In patent US12194022B2, “Use of amisulpride as an anti-emetic” (ACACIA PHARMA LIMITED, priority 2010, dated 2025):
Entries after “also recorded” stand apart in the source; their conditions may differ.

Legend:
[1] = UKPAR Special Warnings and Precautions for Use; cited from earlier work
dog = conditions: cited from earlier work
ferrets [2] = assay: Apomorphine-induced emesis in ferrets; assay type: in vivo, ferret
Procedure: (§1) The method used to test antiemetic activity preclinically follows that described by Gardner et al. (Brit. J. Pharmacol., 116: 3158-3163, 1995) and uses ferrets.
(§2) Sixty minutes before administration of the test substance, ferrets are placed in individual stainless steel cages (40×50×34 cm) with a grid floor. Then, the animals are challenged with apomorphine (0.25 mg/kg s.c.), morphine (0.4 mg/kg i.p.) or cisplatin (10 mg/kg i.p.) and immediately observed over at least a 2-hour period. Parameters recorded include: number of ferrets showing retches and vomits; latency to first retching; latency to first vomiting; number of retches; vomiting (number of vomits); number of emesis periods and mean duration of emesis periods. Retching is defined as a rhythmic respiratory movement against a closed glottis, while vomiting is defined as a forced expulsion of upper gastrointestinal contents.
Where apomorphine is used as the emetogen, amisulpride (or vehicle) was administered subcutaneously (s.c. 30 minutes before administration of apomorphine). Animals (6 per group) were treated with vehicle or amisulpride at 1, 10, or 100 μg/kg given sub-cutaneously. The observation period was 2 hours after apomorphine administration.

ferrets [3] = assay: Cisplatin-induced emesis in ferrets; assay type: in vivo, ferret
Procedure: as §1, §2
Where cisplatin is used as the emetogen, amisulpride (n=6 per group) or vehicle (n=6) is administered intravenously at least 5 minutes before the administration of cisplatin. The observation period is up to 72 hours, which allows effects on early and late phase emesis to be observed.
More specifically, data are reported from an experiment in which the observation period was 3 hours following cisplatin challenge. Cisplatin induced the occurrence of retches and vomits in 7 and 5 of 9 animals tested respectively. The mean incidences were 79.8±22.2 retches, 3.0±1.1 vomits and 10.7±2.8 emetic periods. Retches and vomits occurred after 85 minutes 6 seconds±7 minutes 53 seconds and 86 minutes 39 seconds±10 minutes 28 seconds respectively amisulpride was given at 0.2, 0.6, 2 and 6 mg/kg. At 0.2 mg/kg the incidence of retches was 23.3±10.8 (a 71% decrease in mean value), of vomits 0.2±0.2 (a 93% decrease) and emesis periods 3.7±2.0 (a 65% decrease). At 0.6 mg/kg the incidence of retches was 62.5±59.0, vomits 1.3±1.1 and emesis periods 3.7±1.3. […] At 2.0 mg/kg the incidence of retches was 3.3±2.5, vomits 0.2±0.2 and emesis periods 0.5±0.3. […] At 6 mg/kg the incidences were 11.7±3.8 retches, 1.2±1.0 vomits and 3.7±1.3 emesis periods.
As indicated above, droperidol is a known agent for the treatment of PONV.

ferrets [4] = assay: Morphine-induced emesis in ferrets; assay type: in vivo, ferret
Procedure: as §1, §2
Where morphine is used as the emetogen, amisulpride (n=6 per group) or vehicle (n=6) is administered intravenously 5 minutes before the administration of morphine. The observation period is 2 hours after administration of the morphine.

[5] = test system: patients undergoing routine surgery; assay: Phase IIa study of prophylaxis of post-operative nausea and vomiting; assay type: in vivo, human; conditions: single dose at the time of the operation; 24-hour period post-operation
Procedure: A formulation of the invention was prepared, suitable for intravenous administration. It is a 2.5 mg/ml citrate-buffered solution (nominal pH 5.0) of amisulpride. The composition is given below.
The effects of amisulpride are studied in patients undergoing routine surgery in a randomised, controlled, open-label phase IIa study of efficacy of a single dose as prophylaxis of post-operative nausea and vomiting. The primary endpoint is the incidence of nausea and vomiting in the 24-hour period post-operation. The drug is administered at the time of the operation. The secondary endpoints are the nausea and vomiting rates and severity (measured separately) over 0-2 hours, 2-6 hours and 6-24 hours post-operation. In addition, the use of rescue medication and safety/adverse events, are recorded.

[6] = amisulpride 1 μg/kg s.c. 30 minutes before apomorphine 0.25 mg/kg s.c., 2 hour observation
[7] = amisulpride 0.2 mg/kg, 3 hours observation
[8] = amisulpride 0.6 mg/kg, 3 hours observation
[9] = amisulpride 2.0 mg/kg, 3 hours observation
[10] = amisulpride 6 mg/kg, 3 hours observation
[11] = amisulpride 3 mg/kg i.v. before morphine, 2 hour observation
[12] = amisulpride 6 mg/kg i.v. before morphine
[13] = amisulpride 6 mg/kg i.v. before morphine, 2 hour observation
[14] = amisulpride 12 mg/kg i.v. before morphine, 2 hour observation

In the case of `CCN1CCCC1CNC(=O)c1cc(S(=O)(=O)CC)c(N)cc1OC` (centres unmarked) [Amisulpride], the “effect on QT interval” value [1] is given as “induces a dose dependent prolongation of the QT interval”, the “effect on apomorphine-induced vomiting” value (dog) is given as “inhibit apomorphine-induced vomiting in the dog” and the “number of emesis periods” value (ferrets [2]; [6]) is given as 1.5±0.6. For the same compound, the number of retches (ferrets [2]; [6]) was 6.0±2.2, the number of vomits (ferrets [2]; [6]) was 0±0 and the “inhibition of apomorphine emesis” value (ferrets [2]; amisulpride 10 μg/kg s.c.) was “totally inhibited”. For the same compound, the “inhibition of apomorphine emesis” value (ferrets [2]; amisulpride 100 μg/kg s.c.) was “totally inhibited”, the incidence of retches (ferrets [3]; amisulpride 0.2 mg/kg i.v. before cisplatin 10 mg/kg i.p., 3 hours observation) was 23.3±10.8 and the “decrease in emesis periods vs control” value (ferrets [3]; [7]) was 65%. For the same compound, the “decrease in mean retches vs control” value (ferrets [3]; [7]) was 71%, the “decrease in vomits vs control” value (ferrets [3]; [7]) was 93% and the emesis periods (ferrets [3]; [7]) was 3.7±2.0. For the same compound, the incidence of vomits (ferrets [3]; [7]) was 0.2±0.2, the “efficacy compared with droperidol” value (ferrets [3]; amisulpride 0.6 mg/kg (one animal excluded) and 2 mg/kg vs droperidol 3 mg/kg given 5 minutes before cisplatin) was “better than droperidol at 3 mg/kg; also recorded: more effective than droperidol at 3 mg/kg” and the emesis periods (ferrets [3]; [8]) was 3.7±1.3. It also gave an incidence of vomits (ferrets [3]; [8]) of 1.3±1.1, an incidence of retches (ferrets [3]; amisulpride 0.6 mg/kg, 3 hours observation, one animal had an early, exaggerated response) of 62.5±59.0 and an emesis periods (ferrets [3]; [9]) of 0.5±0.3. The incidence of retches (ferrets [3]; [9]) was 3.3±2.5, the incidence of vomits (ferrets [3]; [9]) was 0.2±0.2 and the emesis periods (ferrets [3]; [10]) was 3.7±1.3. The incidence of retches (ferrets [3]; [10]) was 11.7±3.8, the incidence of vomits (ferrets [3]; [10]) was 1.2±1.0 and the “effect on emetic effects of cisplatin vs vehicle control” value (ferrets [3]; i.v., 72 hour period, early and late stages) was “reduces the emetic effects of cisplatin, in dose-dependent manner”. The number of retches (ferrets [4]; amisulpride 3 mg/kg i.v. 5 minutes before morphine 0.4 mg/kg i.p., 2 hour observation) was 28.7±7.1, the incidence of vomits (ferrets [4]; [11]) was “abolished the incidence of vomits” and the “number of emesis periods” value (ferrets [4]; [11]) was 5.2±1.4. For the same compound, the “decrease in emesis periods vs control” value (ferrets [4]; [12]) was 56%, the “decrease in retches vs control” value (ferrets [4]; [12]) was about 50% and the “decrease in vomits vs control” value (ferrets [4]; [12]) was 72%. For the same compound, the “number of emesis periods” value (ferrets [4]; [13]) was 3.3±1.1, the number of retches (ferrets [4]; [13]) was 17.8±6.8 and the number of vomits (ferrets [4]; [13]) was 0.5±0.3. The “number of emesis periods” value (ferrets [4]; [14]) was 5.7±1.5, the number of retches (ferrets [4]; [14]) was 31.7±11.2 and the number of vomits (ferrets [4]; [14]) was 0.8±0.4. For the same compound, the “effect on emetic effects induced by morphine vs vehicle control” value (ferrets [4]; i.v., 2 hour observation) was “reduces the emetic effects induced by morphine, in dose-dependent manner” and the “effect on nausea, vomiting and retching associated with PONV” value [5] was “demonstrate the effect of amisulpride against the nausea as well as the vomiting and retching associated with PONV”.
